From patent US4731473A, “Compounds useful in treating sickle cell anemia” (Merck & Co., Inc., priority 1986, dated 1988)
Counter-ions that a name gives are not always drawn.

Key:
[1] = target: sickle hemoglobin (HbS) (Homo sapiens, UniProt P68871+P69905, E7V); experiment: solubility or Csat assay: solubility of deoxygenated sickle hemoglobin (Hofrichter et al.); format: biochemical; conditions: low concentrations (5 mM); versus dichlorobenzyloxyacetic acid and p-bromobenzyloxyacetic acid
Source text: One major assay for evaluating antisickling agents involves measuring their effect on increasing the concentration at which sickle hemoglobin forms a gel. This is called the solubility or Csat assay.
The solubility assay (Csat assay) measures the ability of a compound to increase solubility of sickle hemoglobin (HbS). […] The higher the ratio, the higher the activity of the compound.
In order to confirm the effectiveness of these compounds in reducing the effect of sickle cell anemia, tests were performed. The materials were tested according to the assay (Csat) developed by Hofrichter et al. (J. Hofrichter, P. D. Ross and W. A. Eaton, Proc. Natl. Acad. Sci., U.S.A. 73, 30-35, 1976). This assay involves deoxygenation of concentrated sickle hemoglobin with dithionite in the presence of different concentrations of the drugs being tested. Samples are then sealed in quartz epr tubes under anaerobic conditions and spun at about 150,000 g for about 21/2 hours at about 35° C. in an ultracentrifuge. This procedure pellets the polymerized HbS (sickle hemoglobin) to the bottom of the tubes and the supernatant (soluble HbS) is measured in the laboratory as the cyanmethemoglobulin derivative. […] Activity is reported as a ratio of the HbS solubility with the particular drug to HbS solubility with no drug, i.e. control. The higher the ratio the greater degree of activity of the drug. […]

[2] = test system: HbS; experiment: Chromatographic separation: covalent binding to HbS
[3] = test system: erythrocyte membranes; experiment: Tests of transport across erythrocyte membranes; format: cell-based

C=C(CC)C(=O)c1ccc(OCCCC(=O)O)c(Cl)c1Cl [sodium salt of 4-[2,3-dichloro-4-(2-methylenebutyryl)phenoxy]butyric acid]
solubility ratio compared with other antisickling agents (in words) [1]: exhibited a higher solubility ratio than other antisickling agents | covalent binding between HbS and the agent (in words) [2]: desired tight covalent binding between the HbS and the therapeutic agent had occurred | ability to cross the red blood cell membrane and react with hemoglobin (in words) [3]: confirmed the ability of the agent to cross the red blood cell membrane and react with hemoglobin
